These results are taken from patent US4978654A, “Composition and method for treatment of disseminated fungal infections in mammals” (priority 1987, dated 1990).

One series concerns Candida neoformans. Description: In vitro MFC, YNB tube dilution (Table 1). The format is cell-based, Candida neoformans (Cryptococcus neoformans in method). To be noted: 18 h. On the procedure:
(§1) In vitro tests were conducted to determine the effect of free Amp B, Amp B encapsulated in nor-sterol-containing liposomes, (L-Amp B), Amp B encapsulated in cholesterol-containing liposomes (L-Amp B-C) and Amp B in ergosterol-containing liposomes (L-Amp B-E). Desoxycholate free Amphotericin B was obtained from E. R. Squibb & Sons, Inc. Amp B was encapsulated in non-sterol containing liposomes by the method described by Lopez-Berestein, et al., and summarized in Example 1, above. In order to obtain the different doses necessary, lipid concentration was held constant as the Amp B concentration was decreased. The concentration of Amp B within the liposome was determined by scanning in a UV absorption spectrophotometer (Gilford Instrument Laboratories, Oberlin, Ohio) at 405 nm after the Amp B was dissolved in methanol. Cholesterol or ergosterol, obtained from Avanti Polar Lipids (Birmingham, Ala.), was added to the chloroform DMPC:DMPG solution at a molar ratio of 7:3:4 (DMPC:DMPG:sterol).
(§2) In vitro activity of free Amp B, L-Amp B, L-Amp B-C and L-Amp B-E was tested on the following yeast species, all clinical isolates obtained from the Clinical Microbiology Laboratories at the University of Texas M.D. Anderson Hospital and Tumor Institute at Houston: Candida albicans, C. tropicalis, C. parapsilosis, Torulopsis glabrata and Cryptococcus neoformans. The YNB tube dilution method described by Shadomy, S., et al., "Susceptibility Testing with Antifungal Drugs." In Lennette, E. H., et al. (eds.), Manual of Clinical Microbiology, 3rd Ed. (Washington, D.C., American Society for Microbiology, 1980), pp. 647-653, hereby incorporated by reference, was used to perform all tests. All tubes were subcultured (10 μl ) onto Sabouraud-dextrose agar (SDA) (Scott/Randolph, Houston, Tex.) plates. Minimal fungicidal concentrations (MFC) were determined after incubation for 18 hours. The MFC was defined as the lowest concentration of Amp B that allowed no growth or growth of fewer than four colonies on the subculture plates.

The conditions of series [1]: intravenous administration; cited from earlier work.
The next series can be described thus: physchem. The format is physicochemical. Particulars: organic solvent or mixture. On the procedure:
The lipids dimyristoyl phosphatidylcholine (DMPC) and dimyristoyl phosphatidylglycerol (DMPG) were obtained from Avanti Polar Lipids (Birmingham, Ala.), and desoxycholate-free Amp B was obtained from Dr. Dan Bonner (Squibb Pharmaceuticals, New Brunswick, N.J.). DMPC and DMPG were dissolved in chloroform in a molar ratio of 7:3 DMPC:DMPG. Amp B was dissolved in methanol at a concentration of 40 μg/ml and the Amp B solution added to the chloroform containing the DMPC and DMPG. This mixture was placed in a rotary evaporator (Rotavapor®; Brinkman Instruments, Westbury, N.Y.) until all organic solvents were removed. Normal saline was then added and the vesicles formed by gentle agitation. Using this method, to prepare enough liposome-encapsulated Amp B to make up a single dose for a 50 kg patient at a dose of 0.8 mg/kg body weight (as discussed in Example 4) requires the drying of at least 1 to 1.5 liters of the Amp B-methanol solution. Under controlled temperature and pressure conditions, approximately 3 to 4 hours are required to evaporate this volume of the Amp B-methanol solution.
Using this method, 640 μg of Amp B was dissolved in 1 ml of chloroform (containing 25 mg of the lipid mixture), a significant increase over the 40 μg/ml which can be dissolved in methanol as in the method described above. […]

Another series has as its system Candida glabrata. As to the kind of experiment: In vitro MFC, YNB tube dilution (Table 1). The format is cell-based, Candida glabrata (Torulopsis glabrata in method). Particulars: 18 h. As for the experimental part: as §1, §2
Another series relates to C. albicans 336. As to the kind of experiment: Survival of infected mice, effect of lipid composition (FIG. 3). The format is in vivo, Hale-Stoner mice. To be noted: 1.6 mg Amp B/kg. As for the experimental part:
Hale-Stoner mice, 6-8 weeks old and weighing 20-25 g, were obtained from The University of Texas Science Park (Bastrop, Tex.). Mice (10 per group) were injected intravenously with Candida albicans strain 336. This strain was grown for 18 hours on SDA plates at 37° C., washed and resuspended in saline. The mice were injected in the tail vein with 0.2 ml of the suspension containing 7×10^5 colony-forming units. […] The mice were injected on the second day of infection with a single dose of Amphotericin B.
Amp B was encapsulated in sterol-free and sterol-containing liposomes prepared by the method described in Example 2, above. Amp B concentration was determined at 405 nm as described in Example 2.
The effect of the lipid composition of the liposome on the survival of mice infected with C. albicans 336 was also evaluated. Each liposome case shown in FIG. 3 used 1.6 mg Amp B in 200 mg total lipid/kg.

For another series, the system named is Candida parapsilosis. Description: In vitro MFC, YNB tube dilution (Table 1). Particulars: 18 h. The format is cell-based. As for the experimental part: as §1, §2
The subject of another series is Candida tropicalis. As to the kind of experiment: In vitro MFC, YNB tube dilution (Table 1). The format is cell-based. To be noted: 18 h. On the procedure: as §1, §2
The test system of a further series is Candida albicans. As to the kind of experiment: In vitro MFC, YNB tube dilution (Table 1). The format is cell-based. To be noted: 18 h. As for the experimental part:
as §1, §2

Series [2] can be described thus: Toxicity / tolerated dose in mice. To be noted: mouse, in vivo. The source says:
The liposome-encapsulated Amp B may then be administered to a mammal infected with a fungal infection.

Another series relates to Aspergillus terreus. Description: Treatment of cancer patient, Case 2. Type of series: in vivo, human.
For series [3] the following is noted: cited from earlier work.
The subject of a further series is C. albicans. As to the kind of experiment: MFC of Amp B in different phospholipid compositions (Table 3). The format is cell-based, Candida albicans. To be noted: effect of lipid composition.
The subject of series [4] is systemic fungal infection (fungal liver abscesses, consistent with Aspergillus spp.). Particulars: human, in vivo.
Series [5] deals with yeast species, clinical isolates. Description: In vitro antifungal activity summarized over the 19 yeast strains. The format is cell-based. As for the experimental part: as §1, with “Cholesterol or ergosterol, obtained from Avanti Polar Lipids (Birmingham, Ala.), was added to the chloroform DMPC:DMPG solution at a molar ratio of 7:3:4 (DMPC:DMPG:sterol).” left out
In vitro activity of free Amp B, L-Amp B, L-Amp B-C and L-Amp B-E was tested on the following yeast species, all clinical isolates obtained from the Clinical Microbiology Laboratories at the University of Texas M.D. Anderson Hospital and Tumor Institute at Houston: Candida albicans, C. tropicalis, C. parapsilosis, Torulopsis glabrata and Cryptococcus neoformans. […] Minimal fungicidal concentrations (MFC) were determined after incubation for 18 hours. […]

For series [6] the following is noted: Poste, Biol. Cell 47; 19 (1983); cited from earlier work.

≈ marks a conversion by molar mass, not a printed value. Where only a bound is given, the exact number is not on record here.

As for `C[C@@H]1[C@H](O)[C@@H](C)/C=C/C=C/C=C/C=C/C=C/C=C/C=C/[C@H](O[C@@H]2O[C@H](C)[C@@H](O)[C@H](N)[C@@H]2O)C[C@@H]2O[C@](O)(C[C@@H](O)C[C@@H](O)[C@H](O)CC[C@@H](O)C[C@@H](O)CC(=O)O[C@H]1C)C[C@H](O)[C@H]2C(=O)O` [Amp B, Amphotericin B], the MFC against Candida neoformans (strain 222) turned out to be 1.6 μg/Amp B/ml; with Candida neoformans (strain 595) it was 0.4 μg/Amp B/ml; against Candida neoformans (strain 843), 0.8 μg/Amp B/ml; with Candida neoformans (strain 881), 1.6 μg/Amp B/ml; in the series with Candida glabrata (strain 684), 3 μg/Amp B/ml; in the series on Candida glabrata (strain 1172), 1.6 μg/Amp B/ml. For the same compound, the MFC is 3 μg/Amp B/ml with Candida glabrata (strain 1905); 3 μg/Amp B/ml against Candida glabrata (strain 2539); 3 μg/Amp B/ml against Candida parapsilosis (strain 139); above 25 μg/Amp B/ml against Candida parapsilosis (strain 1341); 3 μg/Amp B/ml with Candida parapsilosis (strain 2300); 3 μg/Amp B/ml in the series on Candida tropicalis (strain 251). Moreover, the MFC against Candida tropicalis (strain 1324) came out at 1.6 μg/Amp B/ml; with Candida tropicalis (strain 1784), 3 μg/Amp B/ml; against Candida tropicalis (strain 2463) it was 1.6 μg/Amp B/ml; against Candida albicans (strain 57), 0.8 μg/Amp B/ml; with Candida albicans (strain 306) it was 1.6 μg/Amp B/ml; against Candida albicans (strain 704), 0.4 μg/Amp B/ml. Also, the MFC is recorded as 0.8 μg/Amp B/ml in the series with Candida albicans (strain 1091) and 1.6 μg of Amp B per ML against C. albicans. In [1], the toxic effects result is “renal disfunction, anemia, fever and hypotension”. Further, the results for the solubility in “physchem” (chloroform with lipid mixture) and in “physchem” (methanol) were 640 µg/mL (≈ 693 µM) and 40 µg/mL (≈ 43.3 µM), respectively. In addition, in the series on C. albicans 336, the “survival time over the controls” value is given as “improved survival time over the controls”. Besides, the “time to 50% survival” value in the series on C. albicans 336 (control 5 days) was 10 days. Also, in series [2], the LD50 was around 1.2 mg/kg. Also, the MTD in series [2] (read-out: maximum dose tolerated) amounted to 0.8 mg/kg. In addition, in the series on Aspergillus terreus (intravenous), the “response to non-liposomal Amp B therapy” value is “nasal lesions worsened in spite of Amp B therapy and new lung lesions appeared on chest x-ray examination”. Besides, the “response to Amp B by aerosolization” value in the series with Aspergillus terreus (total of 1.4 gm by aerosolization) is “without improvement”. Moreover, the “side effects of non-liposomal Amp B therapy” value in the series with Aspergillus terreus (total of 2.4 gm intravenously) is “always associated with severe nausea, fever and chills”; in [4], “fever and chills were observed”. In addition, the “solubility in aqueous solution” value in series [3] is recorded as “insoluble in aqueous solution”. Further, the “efficacy ranking in killing of the fungal strains” value in series [5] was “Amp B being most effective, then L-Amp B, L-Amp B-C and, finally L-Amp B-E”.
On to `CCCCCCCCCCCCCCCCOP(=O)(O)OCCCCCCCCCCCCCCCC` [dicetyl phosphate], for which the “toxicity in mammalian systems” value in series [6] is recorded as “toxic in mammalian systems in that they cause damage to the liver”.
`CCCCCCCCCCCCCCCCCCN` [stearylamine]: the “toxicity in mammalian systems” value in series [6] is on record as “toxic in mammalian systems in that they cause damage to the liver”.

As usually defined, the solubility is the dissolved amount per volume that the medium holds. As a reminder, the LD50 is the dose at which mortality reaches 50%. Low values mean greater toxicity, high ones lower toxicity.
